Measured values: patent US20160367529A1, “DEBILITY PREVENTATIVE” (AJINOMOTO CO., INC., priority 2014, published 2016)

Experiment: Body weight of low protein model rat fed amino acid added diet
Type: in vivo
Settings: vs 1% C group
Protocol: Using 10-week-old CD(SD) male rats, they were raised on a 1 wt % casein feed obtained by reducing the protein in standard purified diet AIN-93G (manufactured by Oriental yeast Co., Ltd.) (Table 14). The animal fed on the 1 wt % casein diet for 28 days (4 weeks) was used as a low protein model, and an influence of amino acid administration was evaluated. 10-week-old CD(SD) male rats were divided into the groups shown in Table 17, casein 20 wt % (20% C group) or 1 wt % feed was fed for 28 days according to the schedule shown in FIG. 1, and the body weight of rats thereafter fed with a 1 wt % casein diet (1% C group),and further added with each amino acid shown in Table 16 (4AA addition group (4AA group); a group of 4AA less tryptophan (−Trp group); a group of 4AA less methionine (−Met group); and a group of 4AA less threonine (−Thr group)) was measured. 10-week-old CD(SD) male rats were divided into the groups shown in Table 18, casein 20 wt % (20% C group) or 1 wt % feed was fed for 28 days according to the schedule shown in FIG. 1, and the body weight of rats thereafter fed with a 1 wt % casein diet (1% C group), and further added with the amino acid shown in Table 16 (4AA addition group (4AA group); an isoleucine and threonine combined use group (Ile, Thr group); an isoleucine addition group (Ile group); and the a threonine addition group (Thr group)) was measured. 10-week-old CD(SD) male rats were divided into the groups shown in Table 19, casein 20 wt % (20% C group) or 1 wt % feed was fed for 28 days according to the schedule shown in FIG. 1, and the body weight and weight of viscera-isolated carcass of rats thereafter fed for 14 days with a 1 wt % casein diet (1% C group), and further added with 1.15 g of the amino acid shown in Table 20 per 1 kg feed (4AA addition group (4AA group); a group of essential and non-essential amino acids addition group less 4AA (ALL-4AA group); essential amino acid addition group less 4AA (EAA-4AA group), non-essential amino acid addition group (NEAA group); and glycine addition group (Gly group)) was measured. […]

[1] = Experimental Example 4, 14 days after feeding amino acid added 1 wt % casein diet, FIG. 5

SMILES | body weight (ratio to day 0) [1] | body weight (ratio to day 0) (Experimental Example 5, 14 days after feeding diet with 1.15 g amino acid per 1 kg feed, FIG. 6)
CC[C@H](C)[C@H](N)C(=O)O [Ile, isoleucine] | increase of the body weight was weakened | –
C[C@@H](O)[C@H](N)C(=O)O [Thr, threonine] | significantly recovered | –
NCC(=O)O [Gly, glycine] | – | not recovered
